# Key:
# [1] = molecular target: Gastrin/cholecystokinin type B receptor (Cavia porcellus); assay: Inhibition of [125I]Cholecystokinin-8 binding to Cholecystokinin type B receptor of guinea pig cerebral cortical membranes
# [2] = Inhibition of [125I]-Cholecystokinin-8 (125I-CCK-8) binding to Cholecystokinin type B receptor of guinea pig cerebral cortical membranes
SMILES,IC50 [1],IC50 [2]
"Cc1cccc2c1N(CC(=O)N1CC3CCC(CC3)C1)C(=O)C(NC(=O)Nc1cccc(C(=O)O)c1)N=C2c1ccccc1F (centres undefined) [3-{3-[1-[2-(3-Aza-bicyclo[3.2.2]non-3-yl)-2-oxo-ethyl]-5-(2-fluoro-phenyl)-9-methyl-2-oxo-2,3-dihydro-1H-benzo[e][1,4]diazepin-3-yl]-ureido}-benzoic acid]",0.96 nM,–
"Cc1cccc2c1N(CC(=O)N1CC3CCC(CC3)C1)C(=O)C(NC(=O)Nc1cccc(Br)c1)N=C2c1ccccc1F (centres undefined) [1-[1-[2-(3-Aza-bicyclo[3.2.2]non-3-yl)-2-oxo-ethyl]-5-(2-fluoro-phenyl)-9-methyl-2-oxo-2,3-dihydro-1H-benzo[e][1,4]diazepin-3-yl]-3-(3-bromo-phenyl)-urea]",1.8 nM,–
"Cc1cccc2c1N(CC(=O)N1CC3CCC(CC3)C1)C(=O)C(NC(=O)Nc1cccc(-c3nnn[nH]3)c1)N=C2c1ccccc1F (centres undefined) [1-[1-[2-(3-Aza-bicyclo[3.2.2]non-3-yl)-2-oxo-ethyl]-5-(2-fluoro-phenyl)-9-methyl-2-oxo-2,3-dihydro-1H-benzo[e][1,4]diazepin-3-yl]-3-[3-(1H-tetrazol-5-yl)-phenyl]-urea]",–,6.4 nM
"Cc1cccc2c1N(CC(=O)N1CC3CCC(CC3)C1)C(=O)C(NC(=O)Nc1cccc(Cl)c1)N=C2c1ccccc1F (centres undefined) [1-[1-[2-(3-Aza-bicyclo[3.2.2]non-3-yl)-2-oxo-ethyl]-5-(2-fluoro-phenyl)-9-methyl-2-oxo-2,3-dihydro-1H-benzo[e][1,4]diazepin-3-yl]-3-(3-chloro-phenyl)-urea]",2 nM,–
Cc1cccc(NC(=O)NC2N=C(c3ccccc3F)c3ccccc3N(CC(=O)N3CC4CCC(CC4)C3)C2=O)c1 (centres undefined) [FR-175985],0.087 nM,–
"CSc1cccc(NC(=O)NC2N=C(c3ccccc3F)c3cccc(C)c3N(CC(=O)N3CC4CCC(CC4)C3)C2=O)c1 (centres undefined) [1-[1-[2-(3-Aza-bicyclo[3.2.2]non-3-yl)-2-oxo-ethyl]-5-(2-fluoro-phenyl)-9-methyl-2-oxo-2,3-dihydro-1H-benzo[e][1,4]diazepin-3-yl]-3-(3-methylsulfanyl-phenyl)-urea]",0.37 nM,–
"CC(=O)c1cccc(NC(=O)NC2N=C(c3ccccc3F)c3cccc(C)c3N(CC(=O)N3CC4CCC(CC4)C3)C2=O)c1 (centres undefined) [1-(3-Acetyl-phenyl)-3-[1-[2-(3-aza-bicyclo[3.2.2]non-3-yl)-2-oxo-ethyl]-5-(2-fluoro-phenyl)-9-methyl-2-oxo-2,3-dihydro-1H-benzo[e][1,4]diazepin-3-yl]-urea]",0.84 nM,–
"Cc1cccc(NC(=O)NC2N=C(c3ccccc3F)c3cccc(C)c3N(CC(=O)N3CC4CCC(CC4)C3)C2=O)c1 (centres undefined) [1-[1-[2-(3-Aza-bicyclo[3.2.2]non-3-yl)-2-oxo-ethyl]-5-(2-fluoro-phenyl)-9-methyl-2-oxo-2,3-dihydro-1H-benzo[e][1,4]diazepin-3-yl]-3-m-tolyl-urea]",0.47 nM,–
"COc1cccc(NC(=O)NC2N=C(c3ccccc3F)c3cccc(C)c3N(CC(=O)N3CC4CCC(CC4)C3)C2=O)c1 (centres undefined) [1-[1-[2-(3-Aza-bicyclo[3.2.2]non-3-yl)-2-oxo-ethyl]-5-(2-fluoro-phenyl)-9-methyl-2-oxo-2,3-dihydro-1H-benzo[e][1,4]diazepin-3-yl]-3-(3-methoxy-phenyl)-urea]",1 nM,–

# Source: BindingDB's records for doi:10.1016/S0960-894X(96)00609-9 (1997)
